Source: patent US20250262194A1, “PHARMACEUTICAL FOR TREATING OR PREVENTING CANCER” (CHUGAI SEIYAKU KABUSHIKI KAISHA, priority 2022, published 2025)
Structures can show the parent of a compound that is named as a salt.

Tests used:
[1] = tested on: phosphorylation of MEK and ERK and binding between KRAS and GTP within human cancer cells (NCI-H2122, NCI-H1373, NCI-H441, HPAC); assay: In vitro RAS signal inhibitory activity evaluation (Western blot); conditions: for attenuation of inhibition of pMEK and pERK by lapse of time (Western blot, FIGS. 2 and 3): cells recovered after 4, 24 or 72 hours, single-agent or combined treatment; for inhibition of pMEK, pERK, DUSP4 and DUSP6 (Western blot, FIGS. 2 and 3): 3, 10 or 30 nmol/L compound 1, 1000 nmol/L TNO155, 100 nmol/L GDC-1971
Description: The human cancer cells used were KRAS mutation-positive human lung cancer cell lines NCI-H2122 (KRAS-G12C mutation), NCI-H1373 (KRAS-G12C mutation), NCI-H441 (KRAS-G12V mutation) and HPAC (KRAS-G12D) (all, ATCC). These cells were inoculated to a three-dimensional culture plate PrimeSurface (Sumitomo Bakelite Co., Ltd.) containing a medium. The plate inoculated with the cells was cultured at 37° C. in a 5% carbon dioxide incubator for 24 hours. […] The plate thus subjected to single-agent treatment or combined treatment was cultured at 37° C. in a 5% carbon dioxide incubator. After a lapse of 4 hours, 24 hours or 72 hours, the cells were recovered. The recovered cells were lysed with Cell Lysis Buffer (Cell Signaling Technology, Inc.) containing protease and phosphatase inhibitors (Thermo Fisher Scientific Inc.) to obtain a protein solution.
RAS-GTP, an activated form of RAS, was recovered from a portion of the obtained protein solution using Active Ras Pull-Down and Detection Kit (Thermo Fisher Scientific Inc.). SDS-PAGE was carried out using the obtained RAS-GTP concentrated solution and the protein solution, and migrated proteins were transferred to a PVDF membrane using Trans-Blot Turbo Transfer System (Bio-Rad Laboratories, Inc.). After blocking, the PVDF membrane was reacted with a primary antibody and a secondary antibody in this order. The chemiluminescence of protein bands was caused with Chemi-lumi One Super (Nacalai Tesque, Inc.). The bands were detected with ChemiDoc Touch Imaging System (Bio-Rad Laboratories, Inc.).
“KRAS-GTP” depicts KRAS bound with GTP. “pMEK” and “pERK” depict phosphorylated MEK and ERK, respectively.

[2] = tested on: KRAS mutation-positive mouse lung cancer tissue slice mLU6054; assay: In vivo antitumor activity, mLU6054-transplanted models (Example 6); parameters: species or system C57BL/6J mice; conditions: sodium salt of compound 1 1 mg/kg orally once a day and/or anti-PD-L1 antibody 10 mg/kg intravenous twice a week, 21 days
Description: (§1) Use in combination of the sodium salt of the compound 1 and an anti-PD-L1 antibody was evaluated for its in vivo antitumor activity using BALB/C mice in which a KRAS mutation-positive mouse colon cancer cell line CT26 (Crown Bioscience) was transplanted and C57BL/6J mice in which a KRAS mutation-positive mouse lung cancer tissue slice mLU6054 (Crown Bioscience) was transplanted. The CT26 cells and the mLU6054 tissue slice were subcutaneously transplanted at 5×10^5 and a diameter of […], respectively, per mouse to the mice. The mice were grouped (n=8) when a tumor volume reached approximately 60 to 85 mm^3.
(§2) The CT26- or mLU6054-transplanted models received the single-agent administration or combined administration of the sodium salt of the compound 1 and the anti-PD-L1 antibody. The sodium salt of the compound 1 was dissolved in solvent E for administration. The anti-PD-L 1 antibody was diluted with PBS for administration.
(§3) Administration to the CT26- or mLU6054-transplanted models was performed as described below. The sodium salt of the compound 1 and PBS were administered at 1 mg/kg and 10 ml/kg, respectively, to the single-agent administration group of the sodium salt of the compound 1. […]
(§4) The tumor volumes of the mice were calculated according to the expression (4). […]

[3] = tested on: KRAS mutation-positive mouse colon cancer cell line CT26; assay: In vivo antitumor activity, CT26-transplanted models (Example 6); parameters: species or system BALB/C mice; conditions: sodium salt of compound 1 1 mg/kg orally once a day and/or anti-PD-L1 antibody 10 mg/kg intravenous twice a week, 21 days
Description: as §1, §2, §3, §4

[4] = tested on: KRAS-G12C mutation-positive human cancer cell line NCI-H2122; assay: In vivo antitumor activity, NCI-H2122 xenograft mice (Example 3); parameters: species or system nude mice; conditions: sodium salt of compound 1 0.25 or 0.75 mg/kg and/or adagrasib 100 mg/kg, orally once a day for 21 days
Description: (§7) This evaluation employed xenograft mice in which a KRAS-G12C mutation-positive human cancer cell line MIA PaCa-2 or NCI-H2122 (both, ATCC) was transplanted. The xenograft mice were prepared by subcutaneously transplanting 5×10^6 human cells per mouse to nude mice. After cell transplantation, the mice were grouped (n=8) when a tumor volume reached 200 to 340 mm^3.
The solvent A and the solvent C were administered at 10 ml/kg and 20 ml/kg, respectively, to a control group.
The tumor volumes of the mice were calculated according to the expression (4) given below. […] The ordinates of graphs (a) and (c) of FIG. 17 depict the tumor volumes (mm^3), and the abscissas thereof depict the number of days after cell transplantation.
The body weights of the mice were measured. […] The ordinates of graphs (b) and (d) of FIG. 17 depict the relative body weight change (%), and the abscissas thereof depict the number of days after cell transplantation.

[5] = tested on: KRAS mutation-positive human cancer cell line OV56; assay: In vivo antitumor activity, OV56-transplanted models (Example 4); parameters: species or system SCID mice; conditions: sodium salt of compound 1 0.25 mg/kg orally once a day for 10 days and/or bevacizumab 2.5 mg/kg intraperitoneal twice a week
Description: (§8) The cells of each line were subcutaneously transplanted at 5×10^6 per mouse to the mice. The mice were grouped (n=5) when a tumor volume reached 200 to 300 mm^3.
Administration to the OV56-transplanted models was performed as described below. […] The solvent A and physiological saline were administered at 20 ml/kg and 10 ml/kg, respectively, to a control group.

[6] = tested on: KRAS-G12C mutation-positive human cancer cell line MIA PaCa-2; assay: In vivo antitumor activity, MIA PaCa-2 xenograft mice (Example 3); parameters: species or system nude mice; conditions: sodium salt of compound 1 0.25 mg/kg and/or sotorasib 10 mg/kg, orally once a day for 14 days
Description: as §7
The sodium salt of the compound 1 was dissolved in 10% DMSO/10% Cremophor EL/15% HP-β-CD (2-hydroxypropyl-β-cyclodextrin)/15% polyethylene glycol-400/50% injectable distilled water (solvent A) for administration. […] The sodium salt of the compound 1 and the solvent B were administered at 0.25 mg/kg and 20 ml/kg, respectively, to the single-agent administration group of the sodium salt of the compound 1. […] The solvent A and the solvent B were administered at 20 ml/kg and 20 ml/kg, respectively, to a control group. […] After the completion of the administration period, an observation period of 22 days was established.
The tumor volumes of the mice were calculated according to the expression (4) given below.
The body weights of the mice were measured.

[7] = tested on: KRAS mutation-positive human cancer cell line NCI-H358; assay: In vivo antitumor activity, NCI-H358-transplanted models (Example 5); parameters: species or system nude mice; conditions: sodium salt of compound 1 0.25 mg/kg orally once a day and/or TNO155 5 mg/kg orally twice a day, 21 days
Description: (§5) Use in combination of the sodium salt of the compound 1 and TNO155 was evaluated for its in vivo antitumor activity using nude mice in which any of KRAS mutation-positive human cancer cell lines NCI-H1373, NCI-H358 and NCI-H441 (all, ATCC) was transplanted. The NCI-H1373 cells, the NCI-H358 cells, and the NCI-H441 cells were subcutaneously transplanted at 5×10^6, 1×10^7, and 5×10^6, respectively, per mouse to the mice. The mice were grouped (n=5) when a tumor volume reached approximately 150 to 300 mm^3.
(§6) The NCI-H1373-, NCI-H358- or NCI-H441-transplanted models received the single-agent administration or combined administration of the sodium salt of the compound 1 and TNO155. The sodium salt of the compound 1 was dissolved in solvent A for administration. TNO155 was diluted with 0.5% Tween 80 and 0.5% methyl cellulose prepared with injectable distilled water (solvent D) for administration.
Administration to the NCI-H358-transplanted models was performed as described below. The sodium salt of the compound 1 and the solvent D were administered at 0.25 mg/kg and 10 ml/kg, respectively, to the single-agent administration group of the sodium salt of the compound 1. TNO155 and the solvent A were administered at 5 mg/kg and 10 ml/kg, respectively, to the single-agent administration group of TNO155. […]
as §4

[8] = tested on: KRAS mutation-positive human cancer cell line NCI-H1373; assay: In vivo antitumor activity, NCI-H1373-transplanted models (Example 5); parameters: species or system nude mice; conditions: sodium salt of compound 1 0.25 mg/kg orally once a day and/or TNO155 10 mg/kg orally twice a day, 30 days
Description: as §5, §6
Administration to the NCI-H1373-transplanted models was performed as described below. The sodium salt of the compound 1 and the solvent D were administered at 0.25 mg/kg and 10 ml/kg, respectively, to the single-agent administration group of the sodium salt of the compound 1. […]
as §4

[9] = tested on: KRAS mutation-positive human cancer cell line NCI-H441; assay: In vivo antitumor activity, NCI-H441-transplanted models (Example 5); parameters: species or system nude mice; conditions: sodium salt of compound 1 0.125 or 0.25 mg/kg orally once a day and/or TNO155 5 or 10 mg/kg orally twice a day, 13 days
Description: as §5, §6
Administration to the NCI-H441-transplanted models was performed as described below. The sodium salt of the compound 1 and the solvent D were administered at 0.125 mg/kg or 0.25 mg/kg and 10 ml/kg, respectively, to the single-agent administration group of the sodium salt of the compound 1. […]
as §4

[10] = tested on: KRAS mutation-positive human cancer cell line NCI-H441; assay: In vivo antitumor activity, NCI-H441-transplanted models (Example 4); parameters: species or system nude mice; conditions: sodium salt of compound 1 0.0625 mg/kg orally once a day for 10 days and/or bevacizumab 2.5 mg/kg intraperitoneal twice a week
Description: as §8
Administration to the NCI-H441-transplanted models was performed as described below. […] The solvent A was administered at 20 ml/kg to a control group.

SMILES | attenuation of inhibition of pMEK and pERK by lapse of time (Western blot, FIGS. 2 and 3) [1] | inhibition of pMEK and pERK (Western blot, FIG. 1) ([1]; single-agent treatment, after 4 hours and 24 hours, 300 nmol/L compound 1) | inhibition of pMEK, pERK, DUSP4 and DUSP6 (Western blot, FIGS. 2 and 3) ([1]; single-agent treatment) | tumor volume compared with the control group (FIG. 20b) [2] | tumor volume compared with the control group (FIG. 20a) [3] | tumor volume compared with the control group (FIG. 17c) [4] | tumor volume compared with the control group (FIG. 18b) [5] | tumor volume compared with the control group (FIG. 17a) [6] | tumor volume compared with the control group (FIG. 19B) [7] | tumor volume compared with the control group (FIG. 19A) [8] | tumor volume compared with the control group (FIG. 19C) [9] | tumor volume compared with the control group (FIG. 18a) [10]
CNS(=O)(=O)Nc1nccc(Cc2cc(C(N)=O)c(Nc3ccc(C4CC4)cc3F)c(F)c2F)c1F [compound 1, 2-(4-cyclopropyl-2-fluoro-anilino)-3,4-difluoro-5-[[3-fluoro-2-(methylsulfamoylamino)-4-pyridyl]methyl]benzamide] | tended to be attenuated as time passed | inhibited pMEK and pERK | inhibited pMEK, pERK, DUSP4 and DUSP6 |  |  |  |  |  |  |  |  | 
CNS(=O)(=O)[N]([Na+])c1nccc(Cc2cc(C(N)=O)c(Nc3ccc(C4CC4)cc3F)c(F)c2F)c1F [sodium salt of the compound 1] |  |  |  | suppressed increase in tumor volume | suppressed increase in tumor volume | suppressed increase in tumor volume | suppressed increase in tumor volume | suppressed increase in tumor volume | suppressed increase in tumor volume | suppressed increase in tumor volume | suppressed increase in tumor volume | suppressed increase in tumor volume
N[C@@H]1c2ccccc2OC12CCN(c1cnc3c(N4CCCc5ncccc54)n[nH]c3n1)CC2 [GDC-1971, (R)-1′-(3-(3,4-dihydro-1,5-naphtyridin-1(2H)-yl)-1H-pyrazolo[3,4-b]pyridin-6-yl)-3H-spiro[benzofuran-2,4′-piperidin]-3-amine] | tended to be attenuated as time passed |  | inhibited pMEK, pERK, DUSP4 and DUSP6 |  |  |  |  |  |  |  |  | 
C[C@@H]1OCC2(CCN(c3cnc(Sc4ccnc(N)c4Cl)c(N)n3)CC2)[C@@H]1N [TNO155, (3S,4S)-8-(6-amino-5-((2-amino-3-chloropyridin-4-yl)thio)pyrazin-2-yl)-3-methyl-2-oxa-8-azaspiro[4.5]decan-4-amine, reference compound] | tended to be attenuated as time passed |  | inhibited pMEK, pERK, DUSP4 and DUSP6 |  |  |  |  |  | suppressed increase in tumor volume | suppressed increase in tumor volume | suppressed increase in tumor volume | 
